# In ChEMBL document CHEMBL1201862, “PubChem BioAssay data set” (2004):
# Activity calls are given as the source filed them.
# Assays:
# [1] = biological target: T1, Alkaline phosphatase, tissue-nonspecific isozyme (Homo sapiens, UniProt P05186); assay: human TNAP enzyme inhibitors, SAR follow-up, biochemical, luminescent, dose response (AID 1056)
# T1 sequence (P05186 whole entry): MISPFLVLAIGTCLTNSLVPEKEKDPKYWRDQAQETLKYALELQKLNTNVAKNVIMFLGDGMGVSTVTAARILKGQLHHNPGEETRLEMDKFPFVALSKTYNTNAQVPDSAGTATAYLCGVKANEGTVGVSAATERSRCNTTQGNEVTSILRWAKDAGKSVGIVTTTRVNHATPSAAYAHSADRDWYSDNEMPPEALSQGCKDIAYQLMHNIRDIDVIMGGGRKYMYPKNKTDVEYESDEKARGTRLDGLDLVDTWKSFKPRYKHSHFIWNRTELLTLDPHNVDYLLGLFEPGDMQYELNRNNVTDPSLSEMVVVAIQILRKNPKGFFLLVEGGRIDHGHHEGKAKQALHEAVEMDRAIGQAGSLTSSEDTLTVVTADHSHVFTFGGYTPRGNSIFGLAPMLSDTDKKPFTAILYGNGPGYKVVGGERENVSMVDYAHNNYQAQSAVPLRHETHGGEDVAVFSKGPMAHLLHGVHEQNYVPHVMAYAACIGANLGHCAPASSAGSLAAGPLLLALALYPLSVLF
# [2] = biological target: Glyceraldehyde-3-phosphate dehydrogenase (Homo sapiens, UniProt P04406)
# [3] = growth suppression of beta-catenin-knockout colon cells, dose response, cell-based, HCT116, human colon tumor (AID 1045); format: functional;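 note: HCT116 colon tumor cells with beta catenin knocked out; cells exposed to compound for 60 hours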
# [4] = biological target: Neurotensin receptor type 1 (Homo sapiens, UniProt P30989); format: functional;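 note: Image-based confirmatory dose-response assay measuring agonist activity at NTR1; NTR1-expressing U2OS osteosarcoma cells imaged for beta-arrestin GFP spot formation; agonist potency where compounds increase beta-arrestin recruitment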
# [5] = growth suppression of PTEN-null colon cells, dose response, cell-based, HCT116 PTEN knockout (AID 1047); format: functional;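 note: HCT116 colon tumor cells with PTEN knocked out; cells exposed to compound for 60 hours before readout; potency for loss of cell viability measured by luminescence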
# [6] = biological target: Voltage-gated inwardly rectifying potassium channel KCNH2 (Homo sapiens, UniProt Q12809); assay: hERG protection from proarrhythmic block, potency, dose response, cell-based, thallium flux (AID 2121); format: ADME
# [7] = biological target: Luciferin 4-monooxygenase (Photinus pyralis, UniProt P08659); assay: Counter Screen for Luciferase-based Assay Positives. [Related pubchem assays: 620, 618, 411 ]
# HT-1080 = assay: cytotoxicity in HT1080 fibrosarcoma cells, cell-based, fluorescence readout (AID 620); format: functional; conditions: Homo sapiens
# Bcl-2-like protein 10 = biological target: T2, Bcl-2-like protein 10 (Homo sapiens, UniProt Q9HD36); assay: displacers of TR3 peptide from Bcl-B, primary screen, selectivity assay for Bfl-1 inhibitor project, biochemical, fluorescence polarization, FITC-TR3 peptide (AID 748);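 note: fluorescence polarization from a fluorescein-labelled TR3 peptide binding purified Bcl-B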
# T2 sequence (Q9HD36 whole entry): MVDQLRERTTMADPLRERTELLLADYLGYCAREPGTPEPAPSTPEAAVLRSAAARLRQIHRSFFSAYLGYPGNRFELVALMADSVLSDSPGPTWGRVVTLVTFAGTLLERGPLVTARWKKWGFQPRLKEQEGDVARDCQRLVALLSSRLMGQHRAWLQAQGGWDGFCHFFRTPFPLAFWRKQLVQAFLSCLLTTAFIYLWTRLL
# Prothrombin = Prothrombin (Homo sapiens, UniProt P00734); assay: Thrombin 1536 HTS Dose Response Confirmation. [Related pubchem assays: 1046 (Thrombin 1536 HTS; hits were confirmed in this assay)]; format: functional
# [8] = Counterscreen for IDE inhibitors: Luminescence-based cell-based high throughput dose response assay to identify compounds that are cytotoxic to HEK cells. [Related pubchem assays: 434962 (Primary screen (IDE inhibitors in singlicate)), 449730 (Counterscreen (Cytotoxicity in triplicate)), 435028 (Confirmation (IDE inhibitors in triplicate)) …; format: functional; conditions: HEK293
# Insulin-degrading enzyme = biological target: T3, Insulin-degrading enzyme (Homo sapiens, UniProt P14735); assay: Dose Response: Fluorescence polarization-based cell-based high throughput dose response assay for inhibitors of insulin-degrading enzyme (IDE). [Related pubchem assays: 434962 (Primary screen (IDE inhibitors in singlicate)), 449730 (Counterscreen (Cytotoxicity in triplicate)), 435028 (Confirmation (IDE inhibitors in triplicate)), 434984 (Summary …; format: functional
# T3 sequence (P14735 whole entry): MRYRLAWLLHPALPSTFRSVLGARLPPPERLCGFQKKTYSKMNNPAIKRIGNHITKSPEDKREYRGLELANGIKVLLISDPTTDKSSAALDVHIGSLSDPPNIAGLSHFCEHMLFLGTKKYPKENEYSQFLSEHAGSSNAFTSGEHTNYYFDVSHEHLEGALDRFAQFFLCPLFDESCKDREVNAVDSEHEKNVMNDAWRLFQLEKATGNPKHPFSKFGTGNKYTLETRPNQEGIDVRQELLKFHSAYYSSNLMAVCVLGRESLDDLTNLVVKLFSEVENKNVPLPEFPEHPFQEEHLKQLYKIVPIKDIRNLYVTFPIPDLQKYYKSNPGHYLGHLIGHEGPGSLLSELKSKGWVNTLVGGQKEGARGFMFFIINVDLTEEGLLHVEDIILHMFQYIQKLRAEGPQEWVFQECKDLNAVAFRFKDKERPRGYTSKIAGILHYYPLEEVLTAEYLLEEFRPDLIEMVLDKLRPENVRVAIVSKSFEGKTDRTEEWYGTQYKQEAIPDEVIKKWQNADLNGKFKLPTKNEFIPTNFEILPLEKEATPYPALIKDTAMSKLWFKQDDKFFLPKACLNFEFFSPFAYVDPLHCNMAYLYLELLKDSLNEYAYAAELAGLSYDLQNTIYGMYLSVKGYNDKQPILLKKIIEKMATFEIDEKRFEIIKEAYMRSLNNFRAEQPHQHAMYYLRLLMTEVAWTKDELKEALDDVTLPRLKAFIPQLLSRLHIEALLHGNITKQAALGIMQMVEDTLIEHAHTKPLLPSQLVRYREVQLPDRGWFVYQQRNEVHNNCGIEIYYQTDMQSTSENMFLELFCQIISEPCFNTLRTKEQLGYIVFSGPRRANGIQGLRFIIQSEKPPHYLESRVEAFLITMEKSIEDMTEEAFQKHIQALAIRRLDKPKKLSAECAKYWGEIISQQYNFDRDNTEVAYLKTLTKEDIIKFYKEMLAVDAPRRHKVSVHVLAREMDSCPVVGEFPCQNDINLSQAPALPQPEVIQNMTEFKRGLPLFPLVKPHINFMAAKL
# [9] = cytotoxicity in HEK-293T cells, dose response, cytotoxicity control for BCR NF-kB inhibitor project, luminescence, B-cell screen hits (AID 489021); format: functional, cell-based;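 note: HEK-293T cells carrying an NF-kB luciferase reporter; cells exposed to compound for about 14 hours before viability readout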
# [10] = biological target: T4, Polyadenylate-binding protein 1 (Homo sapiens, UniProt P11940); assay: PABP1 MLLE–PAM2 binding inhibitor potency, dose response, biochemical, fluorescence polarization, FITC-PAM2 peptide (AID 602259); format: functional; conditions: read-out: IC50_Mean
# [11] = biological target: T4, Polyadenylate-binding protein 1; assay: PABP1 MLLE–PAM2 interaction inhibitors, dose response, miRNA deadenylation inhibitor project, biochemical, fluorescence polarization, Cy5-PAM2 peptide, secondary (AID 602260); format: functional; conditions: read-out: IC50_Mean
# [12] = biological target: T5, Zinc finger protein mex-5 (Caenorhabditis elegans, UniProt Q9XUB2); assay: MEX-5/TCR-2 RNA interaction inhibitors, dose response, biochemical, C. elegans, fluorescence polarization (AID 1960)
# T5 sequence (Q9XUB2 whole entry): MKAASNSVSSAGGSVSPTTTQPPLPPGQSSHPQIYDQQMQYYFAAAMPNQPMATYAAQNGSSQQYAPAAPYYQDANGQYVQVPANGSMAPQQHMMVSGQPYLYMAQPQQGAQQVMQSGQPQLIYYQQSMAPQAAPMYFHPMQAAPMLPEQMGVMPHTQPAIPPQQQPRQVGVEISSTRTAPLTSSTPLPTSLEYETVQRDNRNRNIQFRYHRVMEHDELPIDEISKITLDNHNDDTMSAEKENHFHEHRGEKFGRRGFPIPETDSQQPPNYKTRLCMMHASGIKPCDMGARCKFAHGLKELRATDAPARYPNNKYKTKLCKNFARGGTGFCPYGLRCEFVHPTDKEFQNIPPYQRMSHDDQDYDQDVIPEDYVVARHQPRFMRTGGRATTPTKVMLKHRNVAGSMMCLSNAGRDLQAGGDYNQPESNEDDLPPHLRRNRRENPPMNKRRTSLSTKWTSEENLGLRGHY
# [13] = biological target: T6, RNA-binding protein pos-1 (Caenorhabditis elegans, UniProt G5EF15); assay: inhibitors of POS-1/mex-3 RNA binding, dose response, biochemical, fluorescence polarization (AID 1964);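 note: purified POS-1 fused to maltose binding protein made in E. coli; potency of compounds blocking POS-1 binding to fluorescent RNA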
# T6 sequence (G5EF15 whole entry): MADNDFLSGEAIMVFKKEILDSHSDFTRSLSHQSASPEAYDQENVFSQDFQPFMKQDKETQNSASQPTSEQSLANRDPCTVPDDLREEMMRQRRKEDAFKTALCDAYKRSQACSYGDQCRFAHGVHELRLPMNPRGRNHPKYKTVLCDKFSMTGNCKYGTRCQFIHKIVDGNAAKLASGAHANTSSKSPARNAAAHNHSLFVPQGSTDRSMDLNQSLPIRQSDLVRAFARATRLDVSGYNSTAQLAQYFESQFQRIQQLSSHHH
# Cytochrome P450 2C19 = Cytochrome P450 2C19 (Homo sapiens, UniProt P33261); assay: Cytochrome panel assay with activity outcomes. Panel member name: p450-cyp2c19 Compounds with AC50 equal or less than 10 uM are considered active; format: functional; conditions: read-out: AC50
# Sequence of Cytochrome P450 2C19 (P33261 whole entry): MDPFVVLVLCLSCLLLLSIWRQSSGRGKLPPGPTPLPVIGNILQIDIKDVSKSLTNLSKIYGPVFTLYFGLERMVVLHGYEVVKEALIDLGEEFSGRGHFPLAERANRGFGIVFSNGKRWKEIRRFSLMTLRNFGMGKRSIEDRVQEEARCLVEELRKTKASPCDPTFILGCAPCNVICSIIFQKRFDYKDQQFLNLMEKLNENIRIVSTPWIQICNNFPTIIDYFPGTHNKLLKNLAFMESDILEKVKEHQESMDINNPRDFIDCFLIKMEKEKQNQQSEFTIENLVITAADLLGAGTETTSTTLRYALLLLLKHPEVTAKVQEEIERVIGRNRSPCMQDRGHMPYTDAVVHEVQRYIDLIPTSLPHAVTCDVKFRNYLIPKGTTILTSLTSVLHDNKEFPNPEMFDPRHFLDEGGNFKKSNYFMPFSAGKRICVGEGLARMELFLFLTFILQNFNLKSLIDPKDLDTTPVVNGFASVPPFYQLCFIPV
# Sequence of Neurotensin receptor type 1 (P30989 whole entry): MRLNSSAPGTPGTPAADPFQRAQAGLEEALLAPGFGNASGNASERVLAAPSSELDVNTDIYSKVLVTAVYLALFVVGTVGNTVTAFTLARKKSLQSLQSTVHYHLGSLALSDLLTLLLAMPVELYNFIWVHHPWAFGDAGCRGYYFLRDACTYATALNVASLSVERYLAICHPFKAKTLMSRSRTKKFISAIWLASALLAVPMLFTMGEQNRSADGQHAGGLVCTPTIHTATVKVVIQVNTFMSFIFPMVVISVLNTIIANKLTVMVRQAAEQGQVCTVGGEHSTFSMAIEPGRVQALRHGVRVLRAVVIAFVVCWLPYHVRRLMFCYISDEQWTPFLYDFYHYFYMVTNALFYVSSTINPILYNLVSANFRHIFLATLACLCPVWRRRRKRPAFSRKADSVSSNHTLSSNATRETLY
# Sequence of Voltage-gated inwardly rectifying potassium channel KCNH2 (Q12809 whole entry): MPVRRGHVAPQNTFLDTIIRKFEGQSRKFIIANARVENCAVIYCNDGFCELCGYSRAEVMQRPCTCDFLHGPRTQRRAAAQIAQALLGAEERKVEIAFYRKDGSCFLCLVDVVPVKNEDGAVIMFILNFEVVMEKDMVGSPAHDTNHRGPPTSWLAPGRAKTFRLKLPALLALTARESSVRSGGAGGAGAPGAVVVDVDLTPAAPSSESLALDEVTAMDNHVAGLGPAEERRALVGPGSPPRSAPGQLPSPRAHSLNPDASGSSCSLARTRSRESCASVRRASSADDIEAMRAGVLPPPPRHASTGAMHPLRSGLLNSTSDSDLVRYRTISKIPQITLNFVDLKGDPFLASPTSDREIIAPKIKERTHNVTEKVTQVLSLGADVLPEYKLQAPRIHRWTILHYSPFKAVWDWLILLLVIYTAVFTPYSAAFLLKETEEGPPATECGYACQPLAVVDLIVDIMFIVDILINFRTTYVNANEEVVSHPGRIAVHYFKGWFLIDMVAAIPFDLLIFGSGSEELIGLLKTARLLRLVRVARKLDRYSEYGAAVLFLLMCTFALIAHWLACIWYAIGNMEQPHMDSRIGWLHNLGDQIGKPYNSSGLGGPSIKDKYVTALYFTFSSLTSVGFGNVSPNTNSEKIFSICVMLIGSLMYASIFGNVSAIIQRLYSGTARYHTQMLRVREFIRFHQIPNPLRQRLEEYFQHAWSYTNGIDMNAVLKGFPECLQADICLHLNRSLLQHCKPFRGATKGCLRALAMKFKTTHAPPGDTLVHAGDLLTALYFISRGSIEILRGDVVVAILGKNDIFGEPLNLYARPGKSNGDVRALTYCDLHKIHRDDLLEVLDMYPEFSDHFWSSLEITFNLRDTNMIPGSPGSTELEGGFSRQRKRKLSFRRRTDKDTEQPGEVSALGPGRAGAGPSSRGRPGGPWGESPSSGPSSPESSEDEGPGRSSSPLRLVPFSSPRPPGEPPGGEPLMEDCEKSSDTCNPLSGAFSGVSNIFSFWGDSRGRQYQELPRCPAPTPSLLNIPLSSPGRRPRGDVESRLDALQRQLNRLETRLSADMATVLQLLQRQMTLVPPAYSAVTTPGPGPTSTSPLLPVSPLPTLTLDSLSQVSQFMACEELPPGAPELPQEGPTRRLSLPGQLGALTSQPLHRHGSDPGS
# T4 sequence (P11940 whole entry): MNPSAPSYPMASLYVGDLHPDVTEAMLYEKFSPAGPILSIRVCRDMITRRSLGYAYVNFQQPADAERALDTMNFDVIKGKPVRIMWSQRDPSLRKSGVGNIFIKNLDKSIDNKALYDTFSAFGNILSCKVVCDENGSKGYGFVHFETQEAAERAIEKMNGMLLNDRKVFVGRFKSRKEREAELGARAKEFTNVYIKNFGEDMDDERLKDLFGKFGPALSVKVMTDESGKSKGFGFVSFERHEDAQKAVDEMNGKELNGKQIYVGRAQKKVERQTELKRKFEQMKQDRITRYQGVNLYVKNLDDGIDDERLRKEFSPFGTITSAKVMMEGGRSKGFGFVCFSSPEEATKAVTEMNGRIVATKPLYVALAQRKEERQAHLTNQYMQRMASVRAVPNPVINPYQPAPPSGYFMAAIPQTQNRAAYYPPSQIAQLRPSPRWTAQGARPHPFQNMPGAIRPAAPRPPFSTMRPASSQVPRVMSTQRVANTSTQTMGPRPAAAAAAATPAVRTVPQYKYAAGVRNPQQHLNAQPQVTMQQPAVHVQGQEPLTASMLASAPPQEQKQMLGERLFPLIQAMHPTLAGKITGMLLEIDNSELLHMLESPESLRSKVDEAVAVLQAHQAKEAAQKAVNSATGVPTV
# Sequence of Luciferin 4-monooxygenase (P08659 whole entry): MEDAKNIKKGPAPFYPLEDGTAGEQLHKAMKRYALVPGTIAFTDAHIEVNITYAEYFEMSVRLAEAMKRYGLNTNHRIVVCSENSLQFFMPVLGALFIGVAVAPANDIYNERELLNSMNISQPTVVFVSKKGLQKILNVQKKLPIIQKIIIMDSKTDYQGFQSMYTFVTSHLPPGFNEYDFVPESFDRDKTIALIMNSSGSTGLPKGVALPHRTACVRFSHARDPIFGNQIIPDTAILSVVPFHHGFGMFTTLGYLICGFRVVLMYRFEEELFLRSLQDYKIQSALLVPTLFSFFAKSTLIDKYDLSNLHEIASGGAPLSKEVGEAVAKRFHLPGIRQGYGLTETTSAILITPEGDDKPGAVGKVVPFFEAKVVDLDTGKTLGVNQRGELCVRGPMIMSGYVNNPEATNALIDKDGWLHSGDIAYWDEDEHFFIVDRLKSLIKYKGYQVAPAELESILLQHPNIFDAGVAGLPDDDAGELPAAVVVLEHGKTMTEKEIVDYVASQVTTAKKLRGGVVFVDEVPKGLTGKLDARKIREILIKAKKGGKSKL
# Sequence of Glyceraldehyde-3-phosphate dehydrogenase (P04406 whole entry): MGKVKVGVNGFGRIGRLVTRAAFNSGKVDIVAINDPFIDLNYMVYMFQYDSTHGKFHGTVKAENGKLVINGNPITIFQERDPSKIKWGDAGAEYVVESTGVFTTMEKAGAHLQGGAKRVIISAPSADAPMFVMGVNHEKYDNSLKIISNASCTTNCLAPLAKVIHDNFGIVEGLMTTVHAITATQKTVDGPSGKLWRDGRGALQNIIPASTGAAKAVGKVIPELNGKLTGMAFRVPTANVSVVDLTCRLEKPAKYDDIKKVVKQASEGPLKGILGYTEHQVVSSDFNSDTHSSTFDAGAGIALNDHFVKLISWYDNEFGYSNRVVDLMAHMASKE
smiles,measurement,setting,value
COC(=O)c1cc(-c2ccc(F)cc2F)[nH]n1,IC50,[1],0.192 µM (active)
same,IC50,[2],> 10 µM (inconclusive)
CC(=O)Nc1cccc(C(=O)/C=C/c2ccc(Br)cc2)c1,EC50,[3],3.18 µM (active)
same,EC50,[4],13.3 µM (active)
same,EC50,[5],3.77 µM (active)
COC(=O)c1sccc1NS(=O)(=O)c1ccc(F)cc1F,EC50,[6],2.94 µM (active)
Cc1ccc(NC(=O)N2CCc3ccccc32)cc1,EC50,[7],0.72 µM (active)
same,EC50,HT-1080,> 50 µM (not active)
O=C(O)c1cc(-c2ccc(/C=N/n3cnnc3)o2)ccc1O,IC50,[2],> 100 µM (not active)
Nc1nc(-c2ccco2)nn1C(=O)CCc1ccccc1,IC50,Bcl-2-like protein 10,> 100 µM (inactive)
same,IC50,Prothrombin,0.0191 µM (active)
Cc1cccc(C(=O)Nc2ccnc(-c3cccnc3)n2)c1,IC50,[8],35.7 µM (not active)
same,IC50,Insulin-degrading enzyme,7 µM (active)
CC1CCN(c2ccc(C(=O)O)cc2N)CC1,IC50,Bcl-2-like protein 10,30.5 µM (active)
CC1CCN(c2ccc3c(c2)S(=O)(=O)c2cccc(C(=O)NC4CC4)c2C3=O)CC1,IC50,[8],22.6 µM (not active)
same,IC50,Insulin-degrading enzyme,> 55.9 µM (not active)
CC(C)(C)OC(=O)N1CCC(NC(=O)c2[nH]cnc2C(=O)N[C@@H](Cc2ccccc2)C(=O)OCc2ccccc2)CC1,EC50,[4],32.2 µM (inactive)
COc1ccc(OC)c(C2CC(=O)Nc3cc(OC)c(OC)c(OC)c32)c1 (centres undefined),IC50,[9],> 80 µM (inactive)
O=C(NC(=S)Nc1nc(-c2ccccc2)cs1)c1cncc(Br)c1,IC50,[10],> 66 µM (inactive)
same,IC50,[11],> 66 µM (inactive)
same,EC50,[6],11.2 µM (active)
CCc1cccc(CC)c1-n1c(SCC(=O)N2CCc3ccccc3C2)nnc1-c1cccnc1,EC50,[4],4.16 µM (active)
COc1ccc(-n2c(C)cc(/C=C3\SC(=S)N(Cc4ccco4)C3=O)c2C)cc1,EC50,[12],121 µM (active)
same,EC50,[13],> 300 µM (not active)
same,IC50,[8],38 µM (not active)
same,IC50,Insulin-degrading enzyme,> 55.9 µM (not active)
Cc1oncc1C(=O)Nc1ccc(C(F)(F)F)cc1 [LEFLUNOMIDE],AC50,Cytochrome P450 2C19,15.8 µM (inconclusive)
same,EC50,[7],0.84 µM (active)
same,EC50,HT-1080,> 50 µM (not active)
